In brackets after ≈: the same amount, converted by molar mass. Like-named read-outs stand apart in the source and are kept apart here.

The test system of test [1] is carbapenemase producing K. pneumoniae. In words: MIC by broth micro-dilution (CLSI), carbapenemase producing K. pneumoniae. In kind it is cell-based, Klebsiella pneumoniae.
In test [2] the test system is methicillin-sensitive Staphylococcus aureus. In words: MIC by broth micro-dilution (CLSI), methicillin-sensitive S. aureus. In kind it is cell-based. Particulars: MSSA S. aureus ATCC29213.
In test [3] the test system is carbapenem sensitive Escherichia coli. In words: MIC by broth micro-dilution (CLSI), carbapenem sensitive E. coli. The class given is cell-based.
Test [4] has as its system carbapenem sensitive Pseudomonas aeruginosa. In words: MIC by broth micro-dilution (CLSI), carbapenem sensitive P. aeruginosa. In kind it is cell-based.
Where [5] appears, read: Klebsiella pneumoniae, ATCCBAA1705, KPC-2 K. pneumoniae ATCC BAA-1705, read-out: MIC.
[6] abbreviates: Staphylococcus aureus, ATCC 29213 / MSSA, read-out: MIC.
Where [7] appears, read: Escherichia coli, ATCC25922, ESBL −ve E. coli ATCC25922, read-out: MIC.
[8] abbreviates: Pseudomonas aeruginosa, ATCC27853, Meropenem susceptible P. aeruginosa ATCC27853, read-out: MIC.

As for `C[C@@H](NC(=O)Cn1cnnn1)[C@H]1C(=O)N2C(C(=O)O)=C(S[C@@H]3CN[C@H](C(=O)N4CCC(CCN)CC4)C3)[C@H](C)[C@H]12` [Example 480], the minimum inhibitory concentration (MIC) in test [1] (setting [5]) amounted to 1 µg/mL (≈ 1.74 µM); in test [2] (setting [6]), 2 µg/mL (≈ 3.47 µM); in test [3] (setting [7]), 0.25 µg/mL (≈ 0.434 µM); in test [4] (setting [8]), 2 µg/mL (≈ 3.47 µM).
`C[C@@H](NC(=O)Cn1cnnn1)[C@H]1C(=O)N2C(C(=O)O)=C(S[C@@H]3CN[C@H](C(=O)N4CCn5c(cnc5N)C4)C3)[C@H](C)[C@H]12` [Example 481, (4R,5S,6R)-6-((R)-1-(2-(1H-tetrazol-1-yl)acetamido)ethyl)-3-((3S,5S)-5-(3-amino-5,6,7,8-tetrahydroimidazo[1,5-a]pyrazine-7-carbonyl)pyrrolidin-3-ylthio)-4-methyl-7-oxo-1-azabicyclo[3.2.0]hept-2-ene-2-carboxylic acid]: the MIC in test [1] (setting [5]) was 2 µg/mL (≈ 3.42 µM); in test [2] (setting [6]) it was 2 µg/mL (≈ 3.42 µM); in test [3] (setting [7]), 0.125 µg/mL (≈ 0.213 µM); in test [4] (setting [8]) it was 2 µg/mL (≈ 3.42 µM).
Consider `C[C@@H](NC(=O)Cn1cnnn1)[C@H]1C(=O)N2C(C(=O)O)=C(S[C@@H]3CN[C@H](C(=O)Nc4cccc(C(=O)N5CCNCC5)c4)C3)[C@H](C)[C@H]12` [Example 483, (4R,5S,6R)-6-((R)-1-(2-(1H-tetrazol-1-yl)acetamido)ethyl)-4-methyl-7-oxo-3-((3S,5S)-5-(3-(piperazine-1-carbonyl)phenylcarbamoyl)pyrrolidin-3-ylthio)-1-azabicyclo[3.2.0]], for which the minimal inhibitory concentration (MIC) was found to be 4 µg/mL (≈ 6.13 µM) in test [1] (setting [5]), 4 µg/mL (≈ 6.13 µM) in test [2] (setting [6]), 0.5 µg/mL (≈ 0.766 µM) in test [3] (setting [7]) and 128 µg/mL (≈ 196 µM) in test [4] (setting [8]).
Consider `C[C@@H](NC(=O)Cn1cnnn1)[C@H]1C(=O)N2C(C(=O)O)=C(S[C@@H]3CN[C@H](C(=O)Nc4ccc(CN)cc4)C3)[C@H](C)[C@H]12` [Example 484, (4R,5S,6R)-6-((R)-1-(2-(1H-tetrazol-1-yl)acetamido)ethyl)-3-((3S,5S)-5-(4-(aminomethyl)phenyl-carbamoyl)-pyrrolidin-3-ylthio)-4-methyl-7-oxo-1-azabicyclo[3.2.0]hept-2-ene-2-carboxylic acid], for which the minimal inhibitory concentration (MIC) in test [1] (setting [5]) worked out at 4 µg/mL (≈ 7.02 µM); in test [2] (setting [6]), 2 µg/mL (≈ 3.51 µM); in test [3] (setting [7]), 1 µg/mL (≈ 1.76 µM); in test [4] (setting [8]) it was 32 µg/mL (≈ 56.2 µM).
Take `C[C@@H](NC(=O)Cn1cnnn1)[C@H]1C(=O)N2C(C(=O)O)=C(S[C@@H]3CN[C@H](C(=O)N4CCN[C@@H](CN)C4)C3)[C@H](C)[C@H]12` [Example 485, (4R,5S,6R)-6-((R)-1-(2-(1H-tetrazol-1-yl)acetamido)ethyl)-3-((3S,5S)-5-((S)-3-(aminomethyl)piperazine-1-carbonyl)pyrrolidin-3-ylthio)-4-methyl-7-oxo-1-azabicyclo[3.2.0]hept-2-ene-2-carboxylic acid]: the MIC worked out at 4 µg/mL (≈ 7.11 µM) in test [1] (setting [5]), 8 µg/mL (≈ 14.2 µM) in test [2] (setting [6]), 0.5 µg/mL (≈ 0.889 µM) in test [3] (setting [7]) and 4 µg/mL (≈ 7.11 µM) in test [4] (setting [8]).
Regarding `C[C@@H](NC(=O)C(F)F)[C@H]1C(=O)N2C(C(=O)O)=C(S[C@@H]3CN[C@H](C(=O)N4CCC5CNCCC54)C3)[C@H](C)[C@H]12` (stereo partly drawn) [Example 486, (4R,5S,6R)-6-((R)-1-(2,2-difluoroacetamido)ethyl)-4-methyl-3-((3S,5S)-5-(octahydro-1H-pyrrolo[3,2-c]pyridine-1-carbonyl)pyrrolidin-3-ylthio)-7-oxo-1-azabicyclo[3.2.0]hept-2-ene-2-carboxylic acid], the MIC in test [1] (setting [5]) was 8 µg/mL (≈ 14.8 µM); in test [2] (setting [6]) it was 2 µg/mL (≈ 3.69 µM); in test [3] (setting [7]), 0.5 µg/mL (≈ 0.923 µM); in test [4] (setting [8]) it was 64 µg/mL (≈ 118 µM).
As to `C[C@@H](NC(=O)Cn1cnnn1)[C@H]1C(=O)N2C(C(=O)O)=C(S[C@@H]3CN[C@H](C(=O)N4CCC5NCCCC5C4)C3)[C@H](C)[C@H]12` (stereo partly drawn) [Example 487, (4R,5S,6R)-6-((R)-1-(2-(1H-tetrazol-1-yl)acetamidin)ethyl)-3-((3S,5S)-5-(decahydro-1,6-naphthyridine-6-carbonyl)pyrrolidin-3-ylthio)-4-methyl-7-oxo-1-azabicyclo[3.2.0]hept-2-ene-2-carboxylic acid], the MIC was 1 µg/mL (≈ 1.7 µM) in test [1] (KPC-2 K. pneumoniae ATCC BAA-1705), 2 µg/mL (≈ 3.4 µM) in test [2], 0.25 µg/mL (≈ 0.425 µM) in test [3] (ESBL −ve E. coli ATCC25922) and 8 µg/mL (≈ 13.6 µM) in test [4] (Meropenem susceptible P. aeruginosa ATCC27853).
Take `C[C@@H](NC(=O)Cn1cnnn1)[C@H]1C(=O)N2C(C(=O)O)=C(S[C@@H]3CN[C@H](C(=O)N4CCC5CN(CCN)CCC54)C3)[C@H](C)[C@H]12` (stereo partly drawn) [Example 489, (4R,5S,6R)-6-((R)-1-(2-(1H-tetrazol-1-yl)acetamido)ethyl)-3-((3S,5S)-5-(5-(2-aminoethyl)octahydro-1H-pyrrolo[3,2-c]pyridine-1-carbonyl)pyrrolidin-3-ylthio)-4-methyl-7-oxo-1-azabicyclo[3.2.0]hept-2-ene-2-carboxylic acid]: the MIC in test [1] (setting [5]) was 1 µg/mL (≈ 1.62 µM); in test [2] (setting [6]), 4 µg/mL (≈ 6.49 µM); in test [3] (setting [7]) it was 0.5 µg/mL (≈ 0.811 µM); in test [4] (setting [8]) it was 16 µg/mL (≈ 25.9 µM).
With `C[C@@H](NC(=O)Cn1cnnn1)[C@H]1C(=O)N2C(C(=O)O)=C(S[C@@H]3CN[C@H](C(=O)N4C[C@@H](N)C[C@H]4CF)C3)[C@H](C)[C@H]12` [Example 491, (4R,5S,6R)-6-((R)-1-(2-(1H-tetrazol-1-yl)acetamido)ethyl)-3-((3S,5S)-5-((2S,4S)-4-amino-2-(fluoromethyl)pyrrolidine-1-carbonyl)pyrrolidin-3-ylthio)-4-methyl-7-oxo-1-azabicyclo[3.2.0]hept-2-eoe-2-carboxylic acid], the MIC in test [1] (setting [5]) turned out to be 2 µg/mL (≈ 3.54 µM); in test [2] (setting [6]), 4 µg/mL (≈ 7.07 µM); in test [3] (setting [7]) it was 0.25 µg/mL (≈ 0.442 µM); in test [4] (setting [8]) it was 8 µg/mL (≈ 14.1 µM).
On the same counts, the results for `C[C@@H](NC(=O)Cn1cnnn1)[C@H]1C(=O)N2C(C(=O)O)=C(S[C@@H]3CN[C@H](C(=O)N4CC[C@@H](NC(=O)CCN)C4)C3)[C@H](C)[C@H]12` [Example 492, (4R,5S,6R)-6-((R)-1-(2-(1H-tetrazol-1-yl)acetamido)ethyl)-3-((3S,5S)-5-((R)-3-(3-aminopropanamido)pyrrolidine-1-carbonyl)pyrrolidin-3-ylthio)-4-methyl-7-oxo-1-azabicyclo[3.2.0]hept-2-ene-2-carboxylic acid] are 2 µg/mL (≈ 3.31 µM), 4 µg/mL (≈ 6.61 µM), 0.5 µg/mL (≈ 0.827 µM) and 2 µg/mL (≈ 3.31 µM).
For `CO[C@H]1CN(C(=O)[C@@H]2C[C@H](SC3=C(C(=O)O)N4C(=O)[C@H]([C@@H](C)NC(=O)Cn5cnnn5)[C@H]4[C@H]3C)CN2)C[C@@H]1N` [Example 494, (4R,5S,6R)-6-((R)-1-(2-(1H-tetrazol-1-yl)acetamido)ethyl)-3-((3S,5S)-5-((3S,4S)-3-amino-4-methoxypyrrolidine-1-carbonyl)pyrrolidin-3-ylthio)-4-methyl-7-oxo-1-azabicyclo[3.2.0]hept-2-ene-2-carboxylic acid], the MIC in test [1] (setting [5]) came to 4 µg/mL (≈ 7.1 µM); in test [2] (setting [6]), 8 µg/mL (≈ 14.2 µM); in test [3] (setting [7]) it was 0.25 µg/mL (≈ 0.444 µM); in test [4] (setting [8]), 16 µg/mL (≈ 28.4 µM).
On the same counts, the results for `C[C@@H](NC(=O)Cn1cnnn1)[C@H]1C(=O)N2C(C(=O)O)=C(S[C@@H]3CN[C@H](C(=O)N4C[C@@H](F)[C@@H](N)C4)C3)[C@H](C)[C@H]12` [Example 498, (4R,5S,6R)-6-((R)-1-(2-(1H-tetrazol-1-yl)acetamido)ethyl)-3-((3S,5S)-5-((3S,4R)-3-amino-4-fluoropyrrolidine-1-carbonyl)pyrrolidin-3-ylthio)-4-methyl-7-oxo-1-azabicyclo[3.2.0]hept-2-ene-2-carboxylic acid] are 2 µg/mL (≈ 3.63 µM), 2 µg/mL (≈ 3.63 µM), 0.125 µg/mL (≈ 0.227 µM) and 8 µg/mL (≈ 14.5 µM).
On the same counts, the results for `C[C@@H](NC(=O)Cn1cnnn1)[C@H]1C(=O)N2C(C(=O)O)=C(S[C@@H]3CN[C@H](C(=O)N4CCC5(CCNCC5)C4)C3)[C@H](C)[C@H]12` [Example 499, (4R,5S,6R)-6-((R)-1-(2-(1H-tetrazol-1-yl)acetamido)ethyl)-3-((3S,5S)-5-(2,8-diazaspiro[4.5]decane-2-carbonyl)pyrrolidin-3-ylthio)-4-methyl-7-oxo-1-azabicyclo[3.2.0]hept-2-ene-2-carboxylic acid] are 1 µg/mL (≈ 1.7 µM), 2 µg/mL (≈ 3.4 µM), 0.25 µg/mL (≈ 0.425 µM) and 1 µg/mL (≈ 1.7 µM).
In the same order, the values of `C[C@@H](NC(=O)Cn1cnnn1)[C@H]1C(=O)N2C(C(=O)O)=C(S[C@@H]3CN[C@H](C(=O)N4CC[C@@H](C(C)(C)N)C4)C3)[C@H](C)[C@H]12` [Example 500, (4R,5S,6R)-6-((R)-1-(2-(1H-tetrazol-1-yl)acetamido)ethyl)-3-((3S,5S)-5-((R)-3-(2-aminopropan-2-yl)pyrrolidine-1-carbonyl)pyrrolidin-3-ylthio)-4-methyl-7-oxo-1-azabicyclo[3.2.0]hept-2-ene-2-carboxylic acid] are 2 µg/mL (≈ 3.47 µM), 2 µg/mL (≈ 3.47 µM), 0.25 µg/mL (≈ 0.434 µM) and 2 µg/mL (≈ 3.47 µM).
`C[C@@H](NC(=O)Cn1cnnn1)[C@H]1C(=O)N2C(C(=O)O)=C(S[C@@H]3CN[C@H](C(=O)N4CC5(CCNC5)C4)C3)[C@H](C)[C@H]12` [Example 501, (4R,5S,6R)-6-((R)-1-(2-(1H-tetrazol-1-yl)acetamido)ethyl)-3-((3S,5S)-5-(2,6-diazaspiro[3,4]octane-2-carbonyl)pyrrolidin-3-ylthio)-4-methyl-7-oxo-1-azabicyclo[3.2.0]hept-2-ene-2-carboxylic acid]: the MIC is 1 µg/mL (≈ 1.79 µM) in test [1] (setting [5]), 4 µg/mL (≈ 7.15 µM) in test [2] (setting [6]), 0.25 µg/mL (≈ 0.447 µM) in test [3] (setting [7]) and 1 µg/mL (≈ 1.79 µM) in test [4] (setting [8]).

For the origin of these results see patent US11180504B2 (ORCHID PHARMA LTD., priority 2016, dated 2021).
